Source: patent publication US20080069809A1, “Compositions and methods for the diagnosis and treatment of cancer” (priority 2006, published 2008)

Experiments:
Type in all cases: cell-based
[1] = system: KG1a; test: Differentiation (CD11b expression) in KG1a cells; conditions: agent alone
Experimental: (§1) The myeloid leukemic cell lines HL60, NB60, NB4, U937, K562 and KG1a were all grown in RPMI 1640 medium (Life Technologies, Paisley, United Kingdom) supplemented with 10% v/v fetal calf serum (Sear Laboratories International Crawley, United Kingdom), 100 U/mL penicillin, and 100 μg/mL streptomycin (Sigma Aldrich, Poole, United Kingdom) at 37° C. and 5% v/v CO2. AML blasts were isolated from patient bone marrow aspirates and peripheral blood of eight patients at diagnosis or relapse. Patients were not receiving AML therapy at time of sampling. Blasts were isolated by Ficoll density centrifugation and were cultured in serum-free insulin transferrin selenium-positive (ITS+) medium (Life Technologies) containing 300 ng/mL stem cell factor (SCF) and 10 ng/mL interleukin 3 (IL3; R and D Systems, Abingdon, United Kingdom) and antibiotics. Blast purity ranged from 80% to 95%, as assessed by expression of CD34. Normal myeloblasts were isolated from cord blood or adult mobilized peripheral blood. Briefly, CD34^+ cells were indirectly selected from the mononuclear cell preparations using antibody-coated magnetic beads (Miltenyi Biotec, United Kingdom).
Cell differentiation was determined by staining of cells with anti-CD11b antibody as a general early marker of myeloid differentiation. In studies with HL60 cells, PEP005-treated and 20 nM phorbol myristate (PMA)-treated (Sigma Aldrich) cells were also assessed for their ability to phagocytose complement-coated yeast, a marker of a fully differentiated myeloid cell, as previously described (Toksoz et al, Leukemia Res 6:491-498, 1982). The ingestion of three or more yeasts was taken as a positive result. In normal cord blood or adult bone marrow myeloblasts, loss of CD34 was taken as a marker of differentiation. Isotype-matched controls were used and all antibodies were from DAKO (Cambridge, United Kingdom). […] Images were captured with a SPOT2 cameria (Diagnostic Instructions, Sterling Heights, Mich.) and analyzed using Image-Pro 4.0 software (Media Cybernetics, Silver Spring, Md.).

[2] = target: T1, PKC-δ (Homo sapiens, UniProt Q05655); test: PKC-δ activation by translocation (cell fractionation, Western blotting) in HL60 cells; conditions: 20 nM PEP005 or 20 nM PMA, 10 minutes
T1 construct: endogenous in cells; host or cells: HL60
T1 sequence (Q05655 whole entry): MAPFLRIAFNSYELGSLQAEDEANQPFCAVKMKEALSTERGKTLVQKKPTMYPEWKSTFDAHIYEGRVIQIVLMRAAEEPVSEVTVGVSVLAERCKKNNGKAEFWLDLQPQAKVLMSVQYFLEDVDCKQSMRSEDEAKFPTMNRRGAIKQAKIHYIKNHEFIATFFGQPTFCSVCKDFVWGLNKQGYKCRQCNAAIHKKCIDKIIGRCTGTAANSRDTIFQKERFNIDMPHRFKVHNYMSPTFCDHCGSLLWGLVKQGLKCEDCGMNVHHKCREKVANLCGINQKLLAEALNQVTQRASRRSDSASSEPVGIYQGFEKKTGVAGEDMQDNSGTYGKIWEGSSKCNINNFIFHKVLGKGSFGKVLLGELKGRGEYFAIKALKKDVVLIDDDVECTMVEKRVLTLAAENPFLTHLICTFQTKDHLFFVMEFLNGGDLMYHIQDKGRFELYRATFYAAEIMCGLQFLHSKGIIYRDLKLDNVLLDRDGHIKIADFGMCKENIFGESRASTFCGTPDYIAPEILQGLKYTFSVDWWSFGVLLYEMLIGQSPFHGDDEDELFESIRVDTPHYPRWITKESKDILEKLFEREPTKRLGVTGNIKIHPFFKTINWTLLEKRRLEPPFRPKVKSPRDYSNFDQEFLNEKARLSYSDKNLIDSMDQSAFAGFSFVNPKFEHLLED
Experimental: PKC translocates from the soluble to the particulate fraction of cells when activated and this method was used to assess activation of PKC-δ by PEP005 and PMA. Briefly, cells were incubated for 10 minutes in medium alone or 20 nM PEP005 or 20 nM PMA, washed twice in phosphate buffered saline (PBS) and then lysed by homogenization in hypotonic lysis buffer in the absence of detergent. Lysis was checked using trypan blue uptake. Nuclei were isolated by centrifugation at 1000 g for 10 minutes. Centrifugation at 100,000 g for 45 minutes at 4° C. was used to isolate the cytosol (supernatant) and cell membrane (pellet) fractions. All were taken up in SDS sample buffer and analyzed for PKC-δ by Western blotting.

[3] = system: HL60; test: Phagocytosis of complement-coated yeast by HL60 cells; conditions: after 3 days of treatment, PMA 20 nM
Experimental: Cell differentiation was determined by staining of cells with anti-CD11b antibody as a general early marker of myeloid differentiation. In studies with HL60 cells, PEP005-treated and 20 nM phorbol myristate (PMA)-treated (Sigma Aldrich) cells were also assessed for their ability to phagocytose complement-coated yeast, a marker of a fully differentiated myeloid cell, as previously described (Toksoz et al, Leukemia Res 6:491-498, 1982). The ingestion of three or more yeasts was taken as a positive result. In normal cord blood or adult bone marrow myeloblasts, loss of CD34 was taken as a marker of differentiation. Isotype-matched controls were used and all antibodies were from DAKO (Cambridge, United Kingdom). […] Cells were also used to prepare cytospins, which were then differentially stained using a commercial May-Grünwald-Ginesa stain (Diff-Kwik; Gamidor, Abingdon, United Kingdom) to identify cells with a blast or differentiated or apoptotic morphology. Slides were examined using a Zeiss III RS brightfield microscope equipped with a 40×/0.75 water-immersion objective (Carl Zeiss, Jena, Germany). Images were captured with a SPOT2 cameria (Diagnostic Instructions, Sterling Heights, Mich.) and analyzed using Image-Pro 4.0 software (Media Cybernetics, Silver Spring, Md.).

[4] = system: HL60; test: Apoptosis (sub-G1 DNA by FACS, caspase-3 activation) in HL60 leukemic cells
Experimental: as §1, with “Blast purity ranged from 80% to 95%, as assessed by expression of CD34.” left out
To determine the effects of ingenol-3-angelate (PEP005), cells were incubated for up to 5 days with medium alone or PEP005 at a range of concentrations from 0.2 nM to 20 μM. PEP005 was extracted from Euphorbia peplus and supplied as a 98.5% pure preparation by Peplin Limited (Brisbane, Australia) as a dry pellet and was made up to a stock of […] in acetone on a weekly basis. Stocks were stored at 4° C. and diluted into medium when required. Final acetone concentration was never more than 0.1% v/v. Apoptosis and differentiation were assessed after 1 to 5 days.

[5] = system: caspase-3; test: Caspase-3 phosphorylation in 32PO4-labeled HL60 cells; conditions: 20 nM PEP005 and 5 μM rottlerin
Experimental: To determine if PEP005 induced caspase-3 phosphorylation, HL60 cells were incubated with 1.5×10^7 Bq/mL ^32PO4 (Amersham Pharmacia) in phosphate-free medium for 3 hours prior to addition of 20 nM PEP005 or PEP005 and 5 μM rottlerin (Calbiochem, Nottingham, United Kingdom). Cells were then lysed and caspase-3 was immunoprecipitated with an anti-caspase-3 antibody (BD Pharmingen, Oxford, United Kingdom) or an irrelevant isotype-matched control antibody (DAKO) and the immunoprecipitate was isolated using an anti-mouse immunoglobulin G (IgG) antibody (DAKO) and protein G-coated magnetic beads (microbeads; Miltenyi Biotech). The isolate was taken up in SDS sample buffer and run on a 10% w/v SDS-polyacrylamide gel electrophoresis (PAGE) gel and the labeled proteins were visualized using a phosphorimager.

## CC1=C(/C=C/C(C)=C/C=C/C(C)=C/C(=O)O)C(C)(C)CCC1 [ATRA, all-trans retinoic acid, reference compound]
[1]
  differentiation response: did not respond

## CCCCCCCCCCCCCC(=O)O[C@@H]1[C@@H](C)[C@@]2(O)[C@@H](C=C(CO)C[C@]3(O)C(=O)C(C)=C[C@@H]23)[C@@H]2C(C)(C)[C@]12OC(C)=O [PMA, phorbol myristate, reference compound]
[2]
  site of initial PKC-δ translocation: only to the cell membrane
[3]
  differentiation to phagocytes (ability to phagocytose yeast): induced differentiation of HL60 cells toward phagocytes
[4]; after 3 days of treatment, PMA 20 nM
  apoptosis (caspase-3 activity): no increase in apoptosis

## CN(C)CCCn1cc(C2=C(c3c[nH]c4ccccc34)C(=O)NC2=O)c2ccccc21 [bisindolylmaleimide I, reference compound]
[4]; 20 nM PEP005 with 1 μM Bis-1 or 20 nM Go6976
  inhibition of PEP005-induced apoptosis (caspase-3 activation): inhibited

## CC(=O)c1c(O)c(C)c(O)c(Cc2c(O)c3c(c(C(=O)/C=C/c4ccccc4)c2O)OC(C)(C)C=C3)c1O [rottlerin, reference compound]
[5]
  effect on PEP005-induced caspase-3 phosphorylation: ablated
